Experimental data as given in US20030186939A1, “Omega-cycloalkyl-prostaglandin E2 derivatives” (priority 1997, published 2003).

Key:
Conditions in all cases: competition of 2.5 nM 3H-PGE2 binding, CHO cell membrane fraction; more polar compounds
mouse EP4 = biological target: T1, mouse EP4 (Mus musculus, UniProt P32240); test: Binding assay using expression cell of prostanoide receptor subtype (EP4)
T1 construct: expressed in transfected cells; host or cells: CHO cells (membrane fraction)
Procedure: (§1) The standard assay mixture contained membrane fraction (0.5 mg/ml), and [^3H]-PGE2 in a final volume of 200 μl was incubated for 1 hour at room temperature. The reaction was terminated by the addition of 3 ml of ice-cold buffer. The mixture was rapidly filtered through a GF/B glass filter. The radioactivity associated with the filter was measured by liquid scintillation counting.
(§2) Kd and Bmax values were determined from Scatchard plots [Ann. […] The following buffer was used in all reactions.
(§3) Buffer: 10 mM potassium phosphate (pH 6.0), 1 mM EDTA, 10 mM MgCl2, 0.1 M NaCl
(§4) The dissociation constant (Ki) of each compound was calculated by the following equation.

mouse EP3α = biological target: T2, mouse EP3α (Mus musculus, UniProt P30557); test: Binding assay using expression cell of prostanoide receptor subtype (EP3α)
T2 construct: expressed in transfected cells; host or cells: CHO cells (membrane fraction)
T2 sequence (P30557 1-365): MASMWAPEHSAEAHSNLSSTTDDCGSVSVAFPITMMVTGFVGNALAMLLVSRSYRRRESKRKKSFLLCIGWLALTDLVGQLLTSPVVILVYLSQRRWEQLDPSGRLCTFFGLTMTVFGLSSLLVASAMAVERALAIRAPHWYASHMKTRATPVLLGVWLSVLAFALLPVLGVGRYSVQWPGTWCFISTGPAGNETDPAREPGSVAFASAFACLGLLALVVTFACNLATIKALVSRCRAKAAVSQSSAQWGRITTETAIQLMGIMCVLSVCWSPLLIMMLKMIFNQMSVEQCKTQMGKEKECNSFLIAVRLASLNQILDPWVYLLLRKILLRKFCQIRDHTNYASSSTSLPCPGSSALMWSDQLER
Procedure: (§5) The preparation of membrane fraction was carried out according to the method of Sugimoto et. al. [J. Biol. Chem. 267, 6463-6466 (1992)], using expression CHO cell of the prostanoide receptor subtype (mouse EP1, EP2, EP3α, EP4).
as §1
(§6) Kd and Bmax values were determined from Scatchard plots [Ann. N.Y. Acad. Sci., 51, 660 (1949)]. Non-specific binding was calculated as the bound in the presence of an excess (2.5 μM) of unlabeled PGE2. In the experiment for competition of specific ^3H-PGE2 binding by the compounds of the present invention, 2.5 nM of ^3H-PGE2 and various concentrations of compounds of the present invention were added. The following buffer was used in all reactions.
as §3
(§7) In the example compounds, all of values were shown the more polar compounds.
as §4

mouse EP1 = biological target: T3, mouse EP1 (Mus musculus, UniProt P35375); test: Binding assay using expression cell of prostanoide receptor subtype (EP1)
T3 construct: expressed in transfected cells; host or cells: CHO cells (membrane fraction)
T3 sequence (P35375 1-405): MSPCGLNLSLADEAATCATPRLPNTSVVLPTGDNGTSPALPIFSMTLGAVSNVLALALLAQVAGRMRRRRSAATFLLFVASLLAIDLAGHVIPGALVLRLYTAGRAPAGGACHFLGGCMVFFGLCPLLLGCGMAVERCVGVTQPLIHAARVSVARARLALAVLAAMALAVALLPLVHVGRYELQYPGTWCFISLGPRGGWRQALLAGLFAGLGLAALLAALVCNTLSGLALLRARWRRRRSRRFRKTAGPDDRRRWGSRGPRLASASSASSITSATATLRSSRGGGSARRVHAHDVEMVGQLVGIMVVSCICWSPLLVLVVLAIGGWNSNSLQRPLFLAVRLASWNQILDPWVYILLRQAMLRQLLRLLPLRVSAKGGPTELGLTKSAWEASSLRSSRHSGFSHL
Procedure: as §5, §1, §6, §3, §7, §4

mouse EP2 = biological target: T4, mouse EP2 (Mus musculus, UniProt Q62053); test: Binding assay using expression cell of prostanoide receptor subtype (EP2)
T4 construct: expressed in transfected cells; host or cells: CHO cells (membrane fraction)
T4 sequence (Q62053 whole entry): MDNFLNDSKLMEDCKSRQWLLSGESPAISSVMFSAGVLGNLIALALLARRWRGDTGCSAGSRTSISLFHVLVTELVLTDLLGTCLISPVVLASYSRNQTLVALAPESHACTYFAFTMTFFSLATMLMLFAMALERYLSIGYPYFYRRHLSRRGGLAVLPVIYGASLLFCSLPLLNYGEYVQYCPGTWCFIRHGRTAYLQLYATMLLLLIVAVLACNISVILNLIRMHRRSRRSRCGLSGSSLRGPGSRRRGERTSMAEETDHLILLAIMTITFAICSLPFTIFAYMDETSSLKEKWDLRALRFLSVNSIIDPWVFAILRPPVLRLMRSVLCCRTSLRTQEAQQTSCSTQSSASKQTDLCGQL
Procedure: as §1, §2, §3, §4

T1 sequence (P32240 whole entry): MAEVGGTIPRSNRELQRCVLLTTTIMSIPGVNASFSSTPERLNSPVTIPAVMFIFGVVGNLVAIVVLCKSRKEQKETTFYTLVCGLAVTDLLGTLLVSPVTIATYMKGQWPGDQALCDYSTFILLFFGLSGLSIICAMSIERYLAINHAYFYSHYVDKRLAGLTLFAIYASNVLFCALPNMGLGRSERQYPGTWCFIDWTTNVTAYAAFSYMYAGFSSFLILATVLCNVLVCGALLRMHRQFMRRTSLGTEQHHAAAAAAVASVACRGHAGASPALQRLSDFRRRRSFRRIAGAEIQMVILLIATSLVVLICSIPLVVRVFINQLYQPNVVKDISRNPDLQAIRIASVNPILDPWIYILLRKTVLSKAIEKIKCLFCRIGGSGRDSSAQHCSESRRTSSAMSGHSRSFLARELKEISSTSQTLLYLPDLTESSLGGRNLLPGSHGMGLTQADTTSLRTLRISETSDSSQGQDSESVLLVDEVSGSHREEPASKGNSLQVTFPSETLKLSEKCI

SMILES | Ki (mouse EP4) | Ki (mouse EP3α) | Ki (mouse EP1) | Ki (mouse EP2)
C=CCC1(C(O)C/C=C/[C@@H]2[C@@H](C/C=C\CCCC(=O)OC)[C@H](Cl)C[C@H]2O)CCC1 (stereo partly drawn) [Example 16(1), (5Z, 9β, 11α, 13E)-17, 17-propano-11, 16-dihydroxy-9-chloroprosta-5, 13, 19-trienoic acid•methylester] | > 10 µM | > 10 µM | > 10 µM | 0.096 µM
CCCC1(C(O)C/C=C/[C@H]2[C@H](O)CC(=O)[C@@H]2C/C=C\CCCC(=O)O)CCC1 (stereo partly drawn) [compound 4] | > 10 µM | > 10 µM | > 10 µM | 0.092 µM
CCCC1(C(O)C/C=C/[C@H]2[C@H](OC)CC(=O)[C@@H]2C/C=C\CCCC(=O)O)CCC1 (stereo partly drawn) [compound 10] | > 10 µM | > 10 µM | > 10 µM | 0.034 µM
C=C1C[C@@H](O)[C@H](/C=C/CC(O)C2(CCC)CCC2)[C@H]1C/C=C\CCCC(=O)O (stereo partly drawn) [compound 12] | > 10 µM | > 10 µM | > 10 µM | 0.37 µM

The next lines start with the values.

Ki (mouse EP4) | Ki (mouse EP3α) | Ki (mouse EP1) | Ki (mouse EP2) | SMILES
> 10 µM | > 10 µM | > 10 µM | 0.032 µM | C=CCC1(C(O)C/C=C/[C@H]2[C@H](O)CC(=O)[C@@H]2C/C=C\CCCC(=O)O)CCC1 (stereo partly drawn) [Example 4(5), (5Z, 11α, 13E)-11,16-dihydroxy-9-oxo-17,17-propanoprosta-5, 13-19-trienoic acid]
> 10 µM | > 10 µM | > 10 µM | 0.03 µM | CCC1(C(O)C/C=C/[C@H]2[C@H](O)CC(=O)[C@@H]2C/C=C\CCCC(=O)O)CCC1 (stereo partly drawn) [Example 4(10), (5Z, 11α, 13E)-11,16-dihydroxy-9-oxo-17,17-propano-20-norprosta-5,13-dienoic acid]
> 10 µM | > 10 µM | > 10 µM | 0.036 µM | C=CCCC1(C(O)C/C=C/[C@H]2[C@H](O)CC(=O)[C@@H]2C/C=C\CCCC(=O)O)CCC1 (stereo partly drawn) [Example 6(1), (5Z, 11α, 13E)-17,17-propano-20,20-methylene-11,16-dihydroxy-9-oxoprosta-5,13-dienoic acid]
> 10 µM | > 10 µM | > 10 µM | 0.076 µM | C=CC1(C(O)C/C=C/[C@H]2[C@H](O)CC(=O)[C@@H]2C/C=C\CCCC(=O)O)CCC1 (stereo partly drawn) [Example 6(5), (5Z, 11α, 13E)-17,17-propano-11,16-dihydroxy-9-oxo-20-norprosta-5,13,18-trienoic acid]
0.4 µM | 2.7 µM | 1.1 µM | 0.0009 µM | O=C(O)CCC/C=C\C[C@@H]1[C@@H](/C=C/CC(O)C2(CC3CC3)CCC2)[C@H](O)C[C@H]1Cl (stereo partly drawn) [Example 17(2), (5Z, 9β, 11α, 13E)-17, 17-propano-19, 20-methano-11, 16-dihydroxy-9-chloroprosta-5, 13-dienoic acid]
